Data published in patent publication US20260356819A1, “OXOISOINDOLINYL-SUBSTITUTED […] DERIVATIVE AND USE THEREOF” (GLUETACS THERAPEUTICS (SHANGHAI) CO., LTD., priority 2023, published 2026).

Tests used:
Assay type in all cases: cell-based
Settings in all cases: compounds at 50 nM and 500 nM
WEE1 = target: T1, WEE1 (Homo sapiens, UniProt P30291+Q96SW2); assay: Western blot degradation of WEE1 in hPBMCs (24 h)
T1 construct: The supernatant was aspirated as the extracted total cell protein; endogenous in cells; host or cells: human peripheral blood mononuclear cells (hPBMCs)
T1 sequence (P30291 whole entry): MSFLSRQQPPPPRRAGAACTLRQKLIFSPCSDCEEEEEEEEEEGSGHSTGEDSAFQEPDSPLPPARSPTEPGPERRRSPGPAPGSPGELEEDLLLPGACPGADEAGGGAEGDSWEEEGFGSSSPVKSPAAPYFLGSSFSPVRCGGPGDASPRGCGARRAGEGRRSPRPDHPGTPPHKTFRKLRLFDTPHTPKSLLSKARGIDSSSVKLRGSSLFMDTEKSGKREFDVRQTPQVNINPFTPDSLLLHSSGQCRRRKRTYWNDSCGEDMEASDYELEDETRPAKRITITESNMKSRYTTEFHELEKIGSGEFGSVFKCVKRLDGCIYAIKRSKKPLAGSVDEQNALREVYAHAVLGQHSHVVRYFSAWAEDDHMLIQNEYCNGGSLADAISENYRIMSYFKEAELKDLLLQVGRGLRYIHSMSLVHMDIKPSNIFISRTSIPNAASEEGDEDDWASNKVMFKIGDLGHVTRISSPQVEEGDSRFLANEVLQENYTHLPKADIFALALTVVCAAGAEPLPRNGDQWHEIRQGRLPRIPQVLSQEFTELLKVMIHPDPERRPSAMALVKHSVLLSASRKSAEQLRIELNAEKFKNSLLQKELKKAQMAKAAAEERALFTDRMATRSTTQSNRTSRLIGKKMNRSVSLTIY
T1 sequence (Q96SW2 whole entry): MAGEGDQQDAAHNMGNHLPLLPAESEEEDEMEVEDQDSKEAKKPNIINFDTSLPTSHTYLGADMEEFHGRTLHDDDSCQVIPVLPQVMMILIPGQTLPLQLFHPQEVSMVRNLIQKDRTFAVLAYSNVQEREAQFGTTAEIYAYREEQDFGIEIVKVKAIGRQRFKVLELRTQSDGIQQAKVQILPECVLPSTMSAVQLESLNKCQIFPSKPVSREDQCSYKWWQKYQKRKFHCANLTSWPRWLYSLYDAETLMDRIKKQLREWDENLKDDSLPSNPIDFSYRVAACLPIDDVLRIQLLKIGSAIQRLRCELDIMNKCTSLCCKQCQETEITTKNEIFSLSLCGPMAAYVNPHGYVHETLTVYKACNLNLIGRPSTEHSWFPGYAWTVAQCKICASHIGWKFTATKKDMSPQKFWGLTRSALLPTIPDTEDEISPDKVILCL
T1 sequence (Q16531 whole entry partner): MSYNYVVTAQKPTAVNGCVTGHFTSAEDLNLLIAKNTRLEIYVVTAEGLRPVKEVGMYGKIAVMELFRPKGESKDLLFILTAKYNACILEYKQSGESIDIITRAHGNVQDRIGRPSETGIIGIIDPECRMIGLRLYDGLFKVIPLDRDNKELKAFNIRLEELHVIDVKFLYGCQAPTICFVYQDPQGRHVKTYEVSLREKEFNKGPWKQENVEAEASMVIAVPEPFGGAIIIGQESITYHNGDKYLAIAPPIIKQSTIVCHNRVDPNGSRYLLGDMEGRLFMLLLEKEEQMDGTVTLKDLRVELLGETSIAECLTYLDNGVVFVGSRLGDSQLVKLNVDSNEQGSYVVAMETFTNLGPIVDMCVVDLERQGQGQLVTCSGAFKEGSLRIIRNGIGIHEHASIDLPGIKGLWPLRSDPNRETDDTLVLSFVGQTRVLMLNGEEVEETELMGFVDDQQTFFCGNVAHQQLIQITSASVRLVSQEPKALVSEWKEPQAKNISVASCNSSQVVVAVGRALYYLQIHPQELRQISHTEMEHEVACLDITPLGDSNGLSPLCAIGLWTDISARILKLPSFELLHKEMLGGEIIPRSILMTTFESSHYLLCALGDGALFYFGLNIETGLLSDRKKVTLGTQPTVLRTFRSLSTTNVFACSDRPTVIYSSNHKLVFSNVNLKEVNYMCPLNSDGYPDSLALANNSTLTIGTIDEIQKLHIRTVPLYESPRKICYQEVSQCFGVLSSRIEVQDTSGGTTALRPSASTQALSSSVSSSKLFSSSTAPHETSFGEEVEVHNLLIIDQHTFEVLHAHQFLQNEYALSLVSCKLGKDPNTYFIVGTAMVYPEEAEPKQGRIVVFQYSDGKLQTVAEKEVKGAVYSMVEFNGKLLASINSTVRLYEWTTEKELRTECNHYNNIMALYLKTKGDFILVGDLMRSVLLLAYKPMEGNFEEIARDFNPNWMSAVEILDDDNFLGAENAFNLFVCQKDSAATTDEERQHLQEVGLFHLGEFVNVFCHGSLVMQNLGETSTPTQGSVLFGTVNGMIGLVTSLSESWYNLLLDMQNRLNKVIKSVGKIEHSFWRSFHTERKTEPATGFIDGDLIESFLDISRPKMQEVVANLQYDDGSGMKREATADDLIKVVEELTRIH
Method in brief: (§1)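 Immunoblot densitometry quantifies target loss in hPBMCs after a 24 h compound exposure (50 nM, 500 nM). Percent remaining is normalised band intensity; DC50 is the concentration giving half the DMSO-control band grayscale.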

IKZF1 = target: T2, IKZF1 (Homo sapiens, UniProt Q13422+Q96SW2); assay: Western blot degradation of IKZF1 in hPBMCs (24 h)
T2 construct: The supernatant was aspirated as the extracted total cell protein; endogenous in cells; host or cells: human peripheral blood mononuclear cells (hPBMCs)
T2 sequence (Q13422 whole entry): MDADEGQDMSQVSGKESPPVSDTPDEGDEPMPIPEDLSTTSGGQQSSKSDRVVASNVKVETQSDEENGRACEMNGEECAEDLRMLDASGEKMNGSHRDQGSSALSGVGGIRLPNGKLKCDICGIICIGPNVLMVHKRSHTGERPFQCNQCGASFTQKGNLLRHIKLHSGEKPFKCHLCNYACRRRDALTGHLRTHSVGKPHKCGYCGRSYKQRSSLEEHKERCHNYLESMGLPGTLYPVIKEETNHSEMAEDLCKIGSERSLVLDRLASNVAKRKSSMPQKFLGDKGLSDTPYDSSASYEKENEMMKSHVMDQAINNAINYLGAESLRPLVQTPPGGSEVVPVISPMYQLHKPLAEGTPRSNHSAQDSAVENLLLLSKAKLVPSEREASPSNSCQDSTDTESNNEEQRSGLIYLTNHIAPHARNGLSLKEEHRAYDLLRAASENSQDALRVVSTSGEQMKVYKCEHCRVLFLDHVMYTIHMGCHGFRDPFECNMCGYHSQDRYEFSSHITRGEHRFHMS
T2 sequence (Q96SW2 whole entry): as the sequence (Q96SW2 whole entry) above
T2 sequence (Q16531 whole entry partner): as the sequence (Q16531 whole entry partner) above
Method in brief: as §1

IKZF2 = target: T3, IKZF2 (Homo sapiens, UniProt Q96SW2+Q9UKS7); assay: Western blot degradation of IKZF2 in hPBMCs (24 h)
T3 construct: The supernatant was aspirated as the extracted total cell protein; endogenous in cells; host or cells: human peripheral blood mononuclear cells (hPBMCs)
T3 sequence (Q9UKS7 whole entry): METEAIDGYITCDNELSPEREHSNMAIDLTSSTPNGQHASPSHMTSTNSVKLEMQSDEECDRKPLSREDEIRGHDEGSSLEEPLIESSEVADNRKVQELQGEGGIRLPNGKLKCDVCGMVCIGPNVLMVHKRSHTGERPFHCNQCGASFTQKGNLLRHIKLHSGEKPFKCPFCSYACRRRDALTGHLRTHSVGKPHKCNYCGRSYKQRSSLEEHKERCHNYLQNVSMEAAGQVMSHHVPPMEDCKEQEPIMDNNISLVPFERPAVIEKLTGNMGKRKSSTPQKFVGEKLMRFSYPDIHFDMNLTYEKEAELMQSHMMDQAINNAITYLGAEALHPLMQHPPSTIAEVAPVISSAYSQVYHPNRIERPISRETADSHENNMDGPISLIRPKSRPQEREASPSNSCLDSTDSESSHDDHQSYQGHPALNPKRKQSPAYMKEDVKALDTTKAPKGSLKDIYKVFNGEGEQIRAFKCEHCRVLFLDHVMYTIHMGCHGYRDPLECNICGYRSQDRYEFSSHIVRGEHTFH
T3 sequence (Q96SW2 whole entry): as the sequence (Q96SW2 whole entry) above
T3 sequence (Q16531 whole entry partner): as the sequence (Q16531 whole entry partner) above
Method in brief: as §1

IKZF3 = target: T4, IKZF3 (Homo sapiens, UniProt Q96SW2+Q9UKT9); assay: Western blot degradation of IKZF3 in hPBMCs (24 h)
T4 construct: The supernatant was aspirated as the extracted total cell protein; endogenous in cells; host or cells: human peripheral blood mononuclear cells (hPBMCs)
Method in brief: as §1

CK1α = target: T5, CK1α (Homo sapiens, UniProt P48729+Q96SW2); assay: Western blot degradation of CK1α in hPBMCs (24 h)
T5 construct: The supernatant was aspirated as the extracted total cell protein; endogenous in cells; host or cells: human peripheral blood mononuclear cells (hPBMCs)
T5 sequence (P48729 whole entry): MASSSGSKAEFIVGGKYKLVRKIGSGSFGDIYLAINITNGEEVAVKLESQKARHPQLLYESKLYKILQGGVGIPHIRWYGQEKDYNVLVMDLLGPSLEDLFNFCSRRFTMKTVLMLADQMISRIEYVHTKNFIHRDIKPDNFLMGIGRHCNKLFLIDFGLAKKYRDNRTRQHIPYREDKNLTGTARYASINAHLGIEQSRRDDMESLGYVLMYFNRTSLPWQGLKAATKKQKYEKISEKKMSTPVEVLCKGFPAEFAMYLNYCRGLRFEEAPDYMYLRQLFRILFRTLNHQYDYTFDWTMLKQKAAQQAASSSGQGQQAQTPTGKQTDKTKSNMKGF
T5 sequence (Q96SW2 whole entry): as the sequence (Q96SW2 whole entry) above
T5 sequence (Q16531 whole entry partner): as the sequence (Q16531 whole entry partner) above
Method in brief: as §1

GSPT1 = target: T6, GSPT1 (Homo sapiens, UniProt P15170+Q96SW2); assay: Western blot degradation of GSPT1 in hPBMCs (24 h)
T6 construct: The supernatant was aspirated as the extracted total cell protein; endogenous in cells; host or cells: human peripheral blood mononuclear cells (hPBMCs)
T6 sequence (P15170 whole entry): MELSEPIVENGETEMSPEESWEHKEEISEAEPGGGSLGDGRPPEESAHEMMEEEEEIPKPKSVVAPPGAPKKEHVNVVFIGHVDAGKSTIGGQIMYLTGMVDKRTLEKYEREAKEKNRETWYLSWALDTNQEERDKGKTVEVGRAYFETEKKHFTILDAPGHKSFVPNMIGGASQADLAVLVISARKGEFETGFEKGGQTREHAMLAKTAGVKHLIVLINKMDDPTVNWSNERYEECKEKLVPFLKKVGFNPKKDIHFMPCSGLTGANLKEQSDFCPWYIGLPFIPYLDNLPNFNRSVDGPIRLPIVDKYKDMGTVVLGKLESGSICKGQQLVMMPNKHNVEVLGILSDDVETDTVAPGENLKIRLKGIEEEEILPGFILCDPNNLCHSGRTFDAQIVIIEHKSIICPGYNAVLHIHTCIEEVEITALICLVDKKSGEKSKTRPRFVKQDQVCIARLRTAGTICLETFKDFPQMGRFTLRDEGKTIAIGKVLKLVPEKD
T6 sequence (Q96SW2 whole entry): as the sequence (Q96SW2 whole entry) above
T6 sequence (Q16531 whole entry partner): as the sequence (Q16531 whole entry partner) above
Method in brief: as §1

## O=C1CCN(N2C(=O)c3ccc(CN4CCC(c5c[nH]c6cc(F)ccc56)CC4)cc3C2=O)C(=O)N1 [GT-05259, 2-(2,4-dioxotetrahydropyrimidin-1(2H)-yl)-5-((4-(6-fluoro-1H-indol-3-yl)piperidin-1-yl)methyl)isoindoline-1,3-dione]
WEE1
  WEE1 substrate protein remaining %: B (80%< substrate protein remaining % ≤100%)
IKZF1
  IKZF1 substrate protein remaining %: A (0% ≤ substrate protein remaining % ≤80%)
IKZF2
  IKZF2 substrate protein remaining %: A (0% ≤ substrate protein remaining % ≤80%)
IKZF3
  IKZF3 substrate protein remaining %: B (80%< substrate protein remaining % ≤100%)
CK1α
  CK1α substrate protein remaining %: B (80%< substrate protein remaining % ≤100%)
GSPT1
  GSPT1 substrate protein remaining %: A (0% ≤ substrate protein remaining % ≤80%)

## O=C1CCN(N2C(=O)c3ccc(CN4CCC(N5CCc6cc(F)ccc65)CC4)cc3C2=O)C(=O)N1 [GT-05260, 2-(2,4-dioxotetrahydropyrimidin-1(2H)-yl)-5-((4-(5-fluoroindolin-1-yl)piperidin-1-yl)methyl)isoindoline-1,3-dione]
WEE1
  WEE1 substrate protein remaining %: A (0% ≤ substrate protein remaining % ≤80%)
IKZF1
  IKZF1 substrate protein remaining %: A (0% ≤ substrate protein remaining % ≤80%)
IKZF2
  IKZF2 substrate protein remaining %: A (0% ≤ substrate protein remaining % ≤80%)
IKZF3
  IKZF3 substrate protein remaining %: B (80%< substrate protein remaining % ≤100%)
CK1α
  CK1α substrate protein remaining %: B (80%< substrate protein remaining % ≤100%)
GSPT1
  GSPT1 substrate protein remaining %: B (80%< substrate protein remaining % ≤100%)

## O=C1CCN(N2C(=O)c3ccc(CN4CC=C(c5ccnc6cc(F)ccc56)CC4)cc3C2=O)C(=O)N1 [GT-05261, 2-(2,4-dioxotetrahydropyrimidin-1(2H)-yl)-5-((4-(7-fluoroquinolin-4-yl)-3,6-dihydropyridin-1(2H)-yl)methyl)isoindoline-1,3-dione]
WEE1
  WEE1 substrate protein remaining %: B (80%< substrate protein remaining % ≤100%)
IKZF1
  IKZF1 substrate protein remaining %: B (80%< substrate protein remaining % ≤100%)
IKZF2
  IKZF2 substrate protein remaining %: A (0% ≤ substrate protein remaining % ≤80%)
IKZF3
  IKZF3 substrate protein remaining %: B (80%< substrate protein remaining % ≤100%)
CK1α
  CK1α substrate protein remaining %: B (80%< substrate protein remaining % ≤100%)
GSPT1
  GSPT1 substrate protein remaining %: B (80%< substrate protein remaining % ≤100%)

## O=C1CCN(N2C(=O)c3ccc(CN4CCN(C(c5ccccc5)c5ccccc5)CC4)cc3C2=O)C(=O)N1 [GT-05267, 5-((4-benzhydrylpiperazin-1-yl)methyl)-2-(2,4-dioxotetrahydropyrimidin-1(2H)-yl)isoindoline-1,3-dione]
WEE1
  WEE1 substrate protein remaining %: B (80%< substrate protein remaining % ≤100%)
IKZF1
  IKZF1 substrate protein remaining %: B (80%< substrate protein remaining % ≤100%)
IKZF2
  IKZF2 substrate protein remaining %: B (80%< substrate protein remaining % ≤100%)
IKZF3
  IKZF3 substrate protein remaining %: A (0% ≤ substrate protein remaining % ≤80%)
CK1α
  CK1α substrate protein remaining %: A (0% ≤ substrate protein remaining % ≤80%)
GSPT1
  GSPT1 substrate protein remaining %: A (0% ≤ substrate protein remaining % ≤80%)

## O=C1CCN(N2C(=O)c3ccc(CN4CCN(C(c5ccc(F)cc5)c5ccc(F)cc5)CC4)cc3C2=O)C(=O)N1 [GT-05268, 5-((4-(bis(4-fluorophenyl)methyl)piperazin-1-yl)methyl)-2-(2,4-dioxotetrahydropyrimidin-1(2H)-yl)isoindoline-1,3-dione]
WEE1
  WEE1 substrate protein remaining %: B (80%< substrate protein remaining % ≤100%)
IKZF1
  IKZF1 substrate protein remaining %: B (80%< substrate protein remaining % ≤100%)
IKZF2
  IKZF2 substrate protein remaining %: B (80%< substrate protein remaining % ≤100%)
IKZF3
  IKZF3 substrate protein remaining %: A (0% ≤ substrate protein remaining % ≤80%)
CK1α
  CK1α substrate protein remaining %: A (0% ≤ substrate protein remaining % ≤80%)
GSPT1
  GSPT1 substrate protein remaining %: A (0% ≤ substrate protein remaining % ≤80%)

## O=C1CCN(N2C(=O)c3ccc(CN4CCN(C(c5ccc(Cl)cc5)c5ccc(Cl)cc5)CC4)cc3C2=O)C(=O)N1 [GT-05269, 5-((4-(bis(4-chlorophenyl)methyl)piperazin-1-yl)methyl)-2-(2,4-dioxotetrahydropyrimidin-1(2H)-yl)isoindoline-1,3-dione]
WEE1
  WEE1 substrate protein remaining %: B (80%< substrate protein remaining % ≤100%)
IKZF1
  IKZF1 substrate protein remaining %: B (80%< substrate protein remaining % ≤100%)
IKZF2
  IKZF2 substrate protein remaining %: B (80%< substrate protein remaining % ≤100%)
IKZF3
  IKZF3 substrate protein remaining %: B (80%< substrate protein remaining % ≤100%)
CK1α
  CK1α substrate protein remaining %: A (0% ≤ substrate protein remaining % ≤80%)
GSPT1
  GSPT1 substrate protein remaining %: A (0% ≤ substrate protein remaining % ≤80%)

## Cc1nc(C2CCN(Cc3ccc4c(c3)C(=O)N(N3CCC(=O)NC3=O)C4=O)CC2)c2ccsc2n1 [GT-05272, 2-(2,4-dioxotetrahydropyrimidin-1(2H)-yl)-5-((4-(2-methylthieno[2,3-d]pyrimidin-4-yl)piperidin-1-yl)methyl)isoindoline-1,3-dione]
WEE1
  WEE1 substrate protein remaining %: B (80%< substrate protein remaining % ≤100%)
IKZF1
  IKZF1 substrate protein remaining %: B (80%< substrate protein remaining % ≤100%)
IKZF2
  IKZF2 substrate protein remaining %: A (0% ≤ substrate protein remaining % ≤80%)
IKZF3
  IKZF3 substrate protein remaining %: B (80%< substrate protein remaining % ≤100%)
CK1α
  CK1α substrate protein remaining %: B (80%< substrate protein remaining % ≤100%)
GSPT1
  GSPT1 substrate protein remaining %: B (80%< substrate protein remaining % ≤100%)

## Cc1sc2ncnc(C3=CCN(Cc4ccc5c(c4)C(=O)N(N4CCC(=O)NC4=O)C5=O)CC3)c2c1C [GT-05273, 5-((4-(5,6-dimethylthieno[2,3-d]pyrimidin-4-yl)-3,6-dihydropyridin-1(2H)-yl)methyl)-2-(2,4-dioxotetrahydropyrimidin-1(2H)-yl)isoindoline-1,3-dione]
WEE1
  WEE1 substrate protein remaining %: B (80%< substrate protein remaining % ≤100%)
IKZF1
  IKZF1 substrate protein remaining %: B (80%< substrate protein remaining % ≤100%)
IKZF2
  IKZF2 substrate protein remaining %: A (0% ≤ substrate protein remaining % ≤80%)
IKZF3
  IKZF3 substrate protein remaining %: B (80%< substrate protein remaining % ≤100%)
CK1α
  CK1α substrate protein remaining %: B (80%< substrate protein remaining % ≤100%)
GSPT1
  GSPT1 substrate protein remaining %: B (80%< substrate protein remaining % ≤100%)

## Cn1cc(C2=CCN(Cc3ccc4c(c3)C(=O)N(N3CCC(=O)NC3=O)C4=O)CC2)c2ccc(F)cc21 [GT-05276, 2-(2,4-dioxotetrahydropyrimidin-1(2H)-yl)-5-((4-(6-fluoro-1-methyl-1H-indol-3-yl)-3,6-dihydropyridin-1(2H)-yl)methyl)isoindoline-1,3-dione]
WEE1
  WEE1 substrate protein remaining %: B (80%< substrate protein remaining % ≤100%)
IKZF1
  IKZF1 substrate protein remaining %: B (80%< substrate protein remaining % ≤100%)
IKZF2
  IKZF2 substrate protein remaining %: B (80%< substrate protein remaining % ≤100%)
IKZF3
  IKZF3 substrate protein remaining %: A (0% ≤ substrate protein remaining % ≤80%)
CK1α
  CK1α substrate protein remaining %: B (80%< substrate protein remaining % ≤100%)
GSPT1
  GSPT1 substrate protein remaining %: A (0% ≤ substrate protein remaining % ≤80%)

## Cc1ccc(N2CCN(Cc3ccc4c(c3)C(=O)N(N3CCC(=O)NC3=O)C4=O)CC2)s1 [GT-05309, 2-(2,4-dioxotetrahydropyrimidin-1(2H)-yl)-5-((4-(5-methylthiophen-2-yl)piperazin-1-yl)methyl)isoindoline-1,3-dione]
WEE1
  WEE1 substrate protein remaining %: B (80%< substrate protein remaining % ≤100%)
IKZF1
  IKZF1 substrate protein remaining %: B (80%< substrate protein remaining % ≤100%)
IKZF2
  IKZF2 substrate protein remaining %: B (80%< substrate protein remaining % ≤100%)
IKZF3
  IKZF3 substrate protein remaining %: B (80%< substrate protein remaining % ≤100%)
CK1α
  CK1α substrate protein remaining %: B (80%< substrate protein remaining % ≤100%)
GSPT1
  GSPT1 substrate protein remaining %: A (0% ≤ substrate protein remaining % ≤80%)

## Cc1ccc(C2=CCN(Cc3ccc4c(c3)C(=O)N(N3CCC(=O)NC3=O)C4=O)CC2)s1 [GT-05310, 2-(2,4-dioxotetrahydropyrimidin-1(2H)-yl)-5-((4-(5-methylthiophen-2-yl)-3,6-dihydropyridin-1(2H)-yl)methyl)isoindoline-1,3-dione]
WEE1
  WEE1 substrate protein remaining %: B (80%< substrate protein remaining % ≤100%)
IKZF1
  IKZF1 substrate protein remaining %: B (80%< substrate protein remaining % ≤100%)
IKZF2
  IKZF2 substrate protein remaining %: B (80%< substrate protein remaining % ≤100%)
IKZF3
  IKZF3 substrate protein remaining %: B (80%< substrate protein remaining % ≤100%)
CK1α
  CK1α substrate protein remaining %: B (80%< substrate protein remaining % ≤100%)
GSPT1
  GSPT1 substrate protein remaining %: A (0% ≤ substrate protein remaining % ≤80%)

## O=C1CCN(N2C(=O)c3ccc(CN4CCN(c5ccsc5)CC4)cc3C2=O)C(=O)N1 [GT-05313, 2-(2,4-dioxotetrahydropyrimidin-1(2H)-yl)-5-((4-(thiophen-3-yl)piperazin-1-yl)methyl)isoindoline-1,3-dione]
WEE1
  WEE1 substrate protein remaining %: B (80%< substrate protein remaining % ≤100%)
IKZF1
  IKZF1 substrate protein remaining %: B (80%< substrate protein remaining % ≤100%)
IKZF2
  IKZF2 substrate protein remaining %: B (80%< substrate protein remaining % ≤100%)
IKZF3
  IKZF3 substrate protein remaining %: B (80%< substrate protein remaining % ≤100%)
CK1α
  CK1α substrate protein remaining %: B (80%< substrate protein remaining % ≤100%)
GSPT1
  GSPT1 substrate protein remaining %: A (0% ≤ substrate protein remaining % ≤80%)
